Test results reported in patent publication US20070060532A1, “Use of metformin and orlistat for the treatment or prevention of obesity” (Fournier Laboratories Ireland Limited, priority 2004, published 2007).

Test system: C57BL/6 EOPS male mice
Assay: Effect of metformin and orlistat co-administration on body weight in mice fed with high-fat diet
Format: in vivo
Conditions: p.o. mixed with the diet, orlistat 2 mg/kg, metformin 100 mg/kg, mean±s.e.m.
Experimental: This study was designed to evaluate the effects of a combination of metformin and orlistat on body weight.
Animals: C57BL/6 EOPS male mice, weighing approximately 20 g, were used in the study. C57BL/6 EOPS mice are normal mice which, when subjected to a high-fat diet, become obese and develop hyperglycaemia. They were put by 5 into individual cages in a temperature-, humidity- and light-controlled room (21-23° C.±2° C., 12 h-12 h light-dark cycle). […] After acclimatization, they were randomized into groups of 20, based on body weight.
The experimental groups were:
Group 1: mice fed with standard diet
Group 2: mice fed with high-fat diet, treated with orlistat 2 mg/kg p.o., mixed with the diet
Group 3: mice fed with high-fat diet, treated with metformin 100 mg/kg p.o., mixed with the diet
Group 4: mice fed with high-fat diet, treated with orlistat 2 mg/kg p.o. and metformin 100 mg/kg p.o., mixed with the diet.
Body weight was recorded at the beginning of the study, and after one and three weeks of treatment, respectively.
Statistics: All data are presented as mean±s.e.m. Results were subjected to covariance analysis corrected from baseline followed by Turkey-Kramer adjustment for multiple comparisons. A p<0.1 was considered significant (vs. standard diet).

## CCCCCCCCCCC[C@@H](C[C@@H]1OC(=O)[C@H]1CCCCCC)OC(=O)[C@H](CC(C)C)NC=O (relative stereo) [Orlistat, [2S-[2α(R*),3β]]-N-formyl-L-leucine 1-[(3-hexyl-4-oxo-2-oxetanyl)methyl]dodecyl ester]
  Body weight gain (g) after 1 week: +3.2 ± 0.48 g
  Body weight gain (g) after 3 weeks: +5.5 ± 0.63 g

## CN(C)C(=N)NC(=N)N [Metformin, 1,1-dimethylbiguanide]
  Body weight gain (g) after 1 week: +1.3 ± 0.14 g
  Body weight gain (g) after 3 weeks: +3.5 ± 0.25 g
